What was measured:
[1] = system: glycosidase; conditions: see U.S. Pat. No. 5,075,457; cited from earlier work
[2] = system: Dendritic cells; assay: Induction of IL-12 secretion in dendritic cells (ELISA); format: cell-based, BALB/c mice; conditions: dendritic cells; compounds 50 μg/ml and 20 μg/ml, 24 hrs (or 48 hrs)
Protocol: BALB/c male and female mice bred and maintained at the University of Strathclyde under conventional conditions were used at 8 weeks old.
Bone marrow was obtained from the femurs of mice. The femurs were washed in 70% ethanol and placed in a clean petri dish. Dendritic cell (DC) medium (2.5% granulocyte-macrophage colony-stimulating factor (GM-CSF), 10% […] foetal calf serum, 1% L-glutamine, 1% Penicillin/Streptomycin in RPMI-1640 medium) was injected into the bone marrow of the femur by a pumping action and the cells and medium were collected. 1 ml of the cells in medium was added to a 75 cm^2 flask with 15 mls of DC medium. The flasks were then incubated at 37° C., 5% CO2 to allow DC growth and development. After 5 days an additional 10 mls of DC medium was added.
After 10 days of incubation of bone marrow with GM-CSF, the dendritic cells were harvested. This process was carried out in a tissue culture hood. The contents of the flasks were poured into centrifuge tubes to ensure collection of floating DCs. Approximately 10 mls of cooled phosphate buffered saline (PBS) was added to each empty flask, the flasks gently agitated and the contents collected. […] The collected contents of the flasks were centrifuged for 5 minutes at 200 g and the pellet resuspended in 2 mls of DC medium without GM-CSF. A cell count was then carried out.
Cells were counted using a haemocytometer. Approximately 20 μl of the resuspended cells was pipetted into the chamber of the haemocytometer, the cells were adjusted to the correct cell concentration (approx. 5×10^4, and not less than 1×10^4, per well) and then plated out for assay.
The plates were incubated overnight at 37° C. with 5% CO2 and allowed to settle (harvesting stimulates them). The next day the compounds (50 μg/ml and 20 μg/ml) and controls were added then again incubated at 37° C. with 5% CO2 for 24 hrs (or 48 hrs). Harvesting and addition of the compounds was all done in a hood. The plates were then frozen to kill the cells and once defrosted the supernatant analysed as described below.
Using an enzyme linked immunosorbent assay (ELISA) IL-12 concentration in the supernatants was measured. All reagents used in this assay were from PharMingen. A 96-well flat-bottomed ELISA plate was coated with purified rat anti-mouse IL-12 (p40/p70) MAb (Cat no. 554478) at 2 μg/ml diluted in PBS pH 9.0 at 50 μl/well. The plate was then covered in cling film and incubated at 4° C. Following incubation the plate was washed 3 times in washing buffer and dried. 200 μl of blocking buffer (10% foetal calf serum in PBS pH 7.0) was added to each well then covered in cling film and incubated at 37° C. for 45 minutes. The plate was washed 3 times and dried. Recombinant mouse Il-12 standard was added at 30 μl in duplicate wells, starting at 10 ng/ml then 5, 2.5, 1.25, 0.625, 0.31, 0.156, 0.078, 0.039, 0.020, 0.010, 0.005 ng/ml. Standards were diluted in blocking buffer. The supernatant samples were added in at 50 μl/well. The plate was then covered in cling film and incubated for 2 hours at 37° C. The plate was then washed 4 times, dried and the secondary antibody added.
Biotin labelled anti-mouse IL-12 (p40/p70) MAb (Cat no. 18482D) at 1 μg/ml (diluted in blocking buffer) was added to each well at a volume of 100 μl/well. The plate was covered in cling film and incubated at 37° C. for 1 hour. The plate was then washed 5 times, dried and the conjugate added. Streptavidin-AKP (Cat no. 13043E) at 100 μl/well was added at a dilution of 1/2000 in blocking buffer followed by incubation under cling film at 37° C. for 45 minutes.
The plate was finally washed 6 times, dried and the substrate added. pNPP (Sigma) in glycine buffer at 1 mg/ml was added at 100 μl/well. The plate was then covered in tinfoil, incubated at 37° C. and checked every 30 minutes for a colour change.
The plate was then read at 405 nm using a SPECTRAmax 190 spectrometer.

[3] = system: N-acetyl-β-D-glucosaminidase; assay: Glycosidase inhibition, N-acetyl-β-D-glucosaminidase; format: biochemical, Bovine kidney; conditions: 1 mg/ml
Protocol: (§1) All enzymes were purchased from Sigma, as were the appropriate p-nitrophenyl substrates. Assays were carried out in microtitre plates. Enzymes were assayed in 0.1 M citric acid/0.2M di-sodium hydrogen phosphate (McIlvaine) buffers at the optimum pH for the enzyme. All assays were carried out at 20° C. For screening assays the incubation assay consisted of 10 μl of enzyme solution, 10 μl of inhibitor solution (made up in water) and 50 μl of the appropriate 5 mM p-nitrophenyl substrate (3.57 mM final conc.) made up in McIlvaine buffer at the optimum pH for the enzyme.
(§2) The reactions were stopped with 0.4M glycine (pH 10.4) during the exponential phase of the reaction, which was determined at the beginning of the assay using blanks with water, which were incubated for a range of time periods to measure the reaction rate using 5 mM substrate solution. Endpoint absorbances were read at 405 nm with a Biorad microtitre plate reader (Benchmark). Water was substituted for the inhibitors in the blanks.

[4] = system: β-D-glucosidase; assay: Glycosidase inhibition, β-D-glucosidase; format: biochemical, Almonds (Prunus sp.); conditions: 1 mg/ml
Protocol: as §1, §2

[5] = system: Naringinase; assay: Glycosidase inhibition, Naringinase; format: biochemical, Penecillium decumbens; conditions: 1 mg/ml
Protocol: as §1, §2

[6] = system: α-D-glucosidase; assay: Glycosidase inhibition, α-D-glucosidase (Bacillus); format: biochemical, Bacillus stearothermophilus; conditions: 1 mg/ml
Protocol: as §1, §2

[7] = system: β-D-galactosidase; assay: Glycosidase inhibition, β-D-galactosidase; format: biochemical, Bovine liver; conditions: 1 mg/ml; second galactosidase line
Protocol: as §1, §2

[8] = system: HSV-1 (SC16); assay: Treatment of murine HSV-1 infection: ear pinna thickness; format: in vivo, BALB/c mice; conditions: for Ear pinna thickness (mm^−2): Group 4: via drinking water 1 mg/ml
[9] = Treatment of murine HSV-1 infection: body weight; format: in vivo, BALB/c mice; conditions: Group 4: via drinking water 1 mg/ml

O[C@H]1[C@H]2[C@H](O)CCN2C[C@H]1O [(1S,2R,7R,7aR)-1,2,7-trihydroxypyrrolizidine]
glycosidase inhibitory activity relative to swainsonine [1]: much weaker inhibitory activity relative to swainsonine itself

OC[C@@H]1[C@@H](O)[C@H](O)[C@@H]2[C@@H](O)CCN21 [Alexine (1), Alexine]
IL-12 RELEASE [2]: No

OC[C@H]1[C@@H](O)[C@H](O)[C@H]2[C@@H](O)[C@H](O)CN21 [Compound 12, 3,6,7-triepi-casuarine]
% inhibition N-acetyl-β-gluc [3]: 19% | % inhibition glucosidase [4]: 6% | % inhibition Naringinase [5]: 0% | % inhibition gluc (Bacillus) [6]: 9% | % inhibition galactosidase [7]: 6%

OC[C@H]1[C@@H](O)[C@H](O)[C@@H]2[C@@H](O)[C@H](O)CN21 [Compound 21, 3,6,7,7a-tetraepi-casuarine]
% inhibition N-acetyl-β-gluc [3]: 27% | % inhibition glucosidase [4]: 44% | % inhibition Naringinase [5]: 5% | % inhibition gluc (Bacillus) [6]: −2% | % inhibition galactosidase [7]: 3%

OC[C@H]1[C@@H](O)[C@H](O)[C@@H]2[C@@H](O)[C@@H](O)CN21 [Compound 22, 3,7,7a-triepi-casuarine]
% inhibition Naringinase [5]: 10% | % inhibition gluc (Bacillus) [6]: 87%

OCC1O[C@H](O[C@H]2CN3[C@@H]([C@@H](O)[C@H](O)[C@H]3CO)[C@@H]2O)C(O)[C@@H](O)[C@@H]1O (stereo partly drawn) [casuarine-6-α-D-glucopyranose (9), casuarine-6-α-D-glucopyranose]
IL-12 RELEASE [2]: Yes

CC(=O)OCC(CCn1cnc2cnc(N)nc21)COC(C)=O [famciclovir, reference compound]
Ear pinna thickness (mm^−2) ([8]; day 0): 0 mm^−2 | Ear pinna thickness (mm^−2) ([8]; day 1): 0 mm^−2 | Ear pinna thickness (mm^−2) ([8]; day 2): 0 mm^−2 | Ear pinna thickness (mm^−2) ([8]; day 3): 7 mm^−2 | Ear pinna thickness (mm^−2) ([8]; day 4): 7 mm^−2 | Ear pinna thickness (mm^−2) ([8]; day 5): 0 mm^−2 | Ear pinna thickness (mm^−2) ([8]; day 6): 4 mm^−2 | Ear pinna thickness (mm^−2) ([8]; day 7): 0 mm^−2 | Ear pinna thickness (mm^−2) ([8]; day 8): 2.9 mm^−2 | Ear pinna thickness (mm^−2) ([8]; day 9): 2.9 mm^−2 | Ear pinna thickness (mm^−2) ([8]; day 11): 2.9 mm^−2 | Ear pinna thickness (mm^−2) ([8]; day −2): 0 mm^−2 | ear thickness response ([8]; result in words, casuarine at both doses (15 and 150 mg/kg i.p.), famciclovir via drinking water 1 mg/ml): almost completely negated the ear thickness response | Group mean weight ([9]; day 0): 15.1 g | Weight (% change) ([9]; day 0): 9% | Group mean weight ([9]; day 1): 15.6 g | Weight (% change) ([9]; day 1): 13% | Group mean weight ([9]; day 2): 15.8 g | Weight (% change) ([9]; day 2): 14.5% | Group mean weight ([9]; day 3): 16.4 g | Weight (% change) ([9]; day 3): 18.8% | Group mean weight ([9]; day 4): 16.3 g | Weight (% change) ([9]; day 4): 18.1% | Group mean weight ([9]; day 5): 16.7 g | Weight (% change) ([9]; day 5): 21% | Group mean weight ([9]; day 6): 17.1 g | Weight (% change) ([9]; day 6): 23.9% | Group mean weight ([9]; day 7): 16.7 g | Weight (% change) ([9]; day 7): 21% | Group mean weight ([9]; day 8): 17.1 g | Weight (% change) ([9]; day 8): 23.9% | Group mean weight ([9]; day 9): 17.1 g | Group mean weight ([9]; day 10): 17.2 g | Group mean weight ([9]; day 11): 17.1 g | Group mean weight ([9]; day 12): 17.2 g | Group mean weight ([9]; day −2): 13.8 g | Weight (% change) ([9]; day −2): 0%

Source: patent publication US8557859B2, “Immunomodulatory compositions” (Summit (Wales) Limited, priority 2003, dated 2013)
